How the values were obtained:
Rat M4 = molecular target: T1, Rat M4 (Rattus norvegicus, UniProt P08485); test: mAChR M4 cell-based functional assay (calcium flux, rat M4/Gqi5/CHO cells); details: for remaining activity at 30 µM: CHO, % ACh maximum at 30 μM, read-out: Emin (%) rat M4; for IC50: antagonist mode, decrease of the response to an EC80 concentration of acetylcholine, CHO-K1 cells with Gqi5
T1 construct: expressed in transfected cells; host or cells: CHO-K1 (ATCC), co-transfected with chimeric G protein Gqi5
T1 sequence (P08485 1-478): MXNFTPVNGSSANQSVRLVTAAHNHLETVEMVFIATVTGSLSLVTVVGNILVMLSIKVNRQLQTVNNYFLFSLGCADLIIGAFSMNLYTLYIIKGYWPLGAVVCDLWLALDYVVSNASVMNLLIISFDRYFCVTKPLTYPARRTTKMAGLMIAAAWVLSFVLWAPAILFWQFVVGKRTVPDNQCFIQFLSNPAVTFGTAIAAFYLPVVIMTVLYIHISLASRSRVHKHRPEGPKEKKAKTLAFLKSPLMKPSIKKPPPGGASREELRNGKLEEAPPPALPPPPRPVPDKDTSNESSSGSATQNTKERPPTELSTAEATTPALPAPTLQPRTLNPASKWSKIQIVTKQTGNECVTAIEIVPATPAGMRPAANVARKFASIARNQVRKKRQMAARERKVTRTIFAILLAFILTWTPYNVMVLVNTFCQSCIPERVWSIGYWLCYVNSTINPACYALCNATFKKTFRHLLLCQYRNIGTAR
Protocol: (§1) Human or rat M4 cDNA, along with the chimeric G protein Gqi5, were transfected into Chinese hamster ovary (CHO-K1) cells purchased from the American Type Culture Collection using Lipofectamine2000. M4/Gqi5/CHO cells were grown in Ham's F-12 medium containing 10% heat-inactivated fetal bovine serum (FBS), 20 mM HEPES, 500 μg/mL G418 sulfate, and 200 μg/mL Hygromycin B.
(§2) For high throughput measurement of agonist-evoked increases in intracellular calcium, CHO-K1 cells stably expressing muscarinic receptors were plated in growth medium lacking G418 and hygromycin at 15,000 cells/20 μL/well in Greiner 384-well black-walled, tissue culture (TC)-treated, clear-bottom plates (VWR). Cells were incubated overnight at 37° C. and 5% CO2. The next day, cells were washed using an ELX 405 (BioTek) with assay buffer; the final volume was then aspirated to 20 μL. Next, 20 μL of a 2.3 μM stock of Fluo-4/acetoxymethyl ester (Invitrogen, Carlsbad, Calif.), prepared as a 2.3 mM stock in DMSO and mixed in a 1:1 ratio with 10% (w/v) Pluronic F-127 and diluted in assay buffer, was added to the wells and the cell plates were incubated for 50 min at 37° C. and 5% CO2. Dye was removed by washing with the ELX 405 and the final volume was aspirated to 20 μL. Compound master plates were formatted in a 10 point concentration-response curve (CRC) format (1:3 dilutions) in 100% DMSO with a starting concentration of 10 or 1 mM using a BRAVO liquid handler (Agilent). Test compound CRCs were then transferred to daughter plates (240 nL) using the Echo acoustic plate reformatter (Labcyte, Sunnyvale, Calif.) and then diluted into assay buffer (40 μL) to a 2× stock using a Thermo Fisher Combi (Thermo Fisher Scientific, Waltham, Mass.).
(§3) Calcium flux was measured using the Functional Drug Screening System (FDSS) 6000 or 7000 (Hamamatsu Corporation, Tokyo, Japan) as an increase in the fluorescent static ratio. Compounds were applied to cells (20 μL, 2×) using the automated system of the FDSS at 2 seconds into the protocol and the data were collected at 1 Hz. At 143 s, 10 μL of an EC20 concentration of the muscarinic receptor agonist acetylcholine was added (5×), followed by the addition of 12 μL of an EC80 concentration of acetylcholine at the 268 s time point (5×). Agonist activity was analyzed as a concentration-dependent increase in calcium mobilization upon compound addition. Positive allosteric modulator activity was analyzed as a concentration-dependent increase in the EC20 acetylcholine response. Antagonist activity was analyzed as a concentration-dependent decrease in the EC80 acetylcholine response for the purposes of the tables herein, an IC50 (inhibitory concentration 50) was calculated as a concentration-dependent decrease of the response elicited by an EC80 concentration of acetylcholine, Concentration-response curves were generated using a four-parameter logistical equation in XLFit curve fitting software (IDBS, Bridgewater, N.J.) for Excel (Microsoft, Redmond, Wash.) or Prism (GraphPad Software, Inc., San Diego, Calif.) or the Dotmatics software platform (Dotmatics, Bishop's Stortford, UK).
(§4) Compounds were synthesized as described above. Activity (IC50 and Emin) was determined in the mAChR M4 cell-based functional assay as described above and the data are shown in Table 2. The compound number corresponds to the compound numbers used in Examples 1-3.

Human M4 = molecular target: T2, Human M4 (Homo sapiens, UniProt P08173); test: mAChR M4 cell-based functional assay (calcium flux, human M4/Gqi5/CHO cells); details: for remaining activity at 30 µM: CHO, % ACh maximum at 30 μM, read-out: Emin (%) human M4; for IC50: antagonist mode, decrease of the response to an EC80 concentration of acetylcholine, CHO-K1 cells with Gqi5
T2 construct: expressed in transfected cells; host or cells: CHO-K1 (ATCC), co-transfected with chimeric G protein Gqi5
T2 sequence (P08173 1-479): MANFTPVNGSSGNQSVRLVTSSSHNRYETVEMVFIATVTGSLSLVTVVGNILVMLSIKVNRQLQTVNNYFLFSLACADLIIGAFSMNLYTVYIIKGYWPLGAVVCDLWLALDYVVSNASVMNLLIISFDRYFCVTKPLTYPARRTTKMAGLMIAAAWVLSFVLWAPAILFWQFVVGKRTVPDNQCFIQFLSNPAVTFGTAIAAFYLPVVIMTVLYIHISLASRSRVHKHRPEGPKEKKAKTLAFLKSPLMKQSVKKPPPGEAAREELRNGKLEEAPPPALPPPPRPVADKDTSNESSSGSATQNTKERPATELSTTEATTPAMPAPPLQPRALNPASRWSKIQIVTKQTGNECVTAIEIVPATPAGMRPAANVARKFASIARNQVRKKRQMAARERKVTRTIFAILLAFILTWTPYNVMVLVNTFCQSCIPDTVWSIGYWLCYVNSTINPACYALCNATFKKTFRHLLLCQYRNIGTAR
Protocol: as §1, §2, §3, §4

remaining activity at 30 µM (Rat M4) | IC50 (Rat M4) | remaining activity at 30 µM (Human M4) | IC50 (Human M4) | SMILES
– | – | 46.7% | > 10 µM | Cc1cnn(C)c1-c1ccc(N2CCC3CN(Cc4ccccc4)CC32)nn1 (stereo not shown) [Compound 5, 5-benzyl-1-(6-(1,4-dimethyl-1H-pyrazol-5-yl)pyridazin-3-yl)octahydropyrrolo[3,4-b]pyrrole]
30.9% | > 10 µM | 7.19% | 1.98 µM | Cc1cnn(C)c1-c1ccc(N2CCC3CN(CCc4ccccc4)CC32)nn1 (stereo not shown) [Compound 6, 1-(6-(1,4-ditnethyl-1H-pyrazol-5-yl)pyridazin-3-yl)-5-phenethyloctahydropyrrolo[3,4-b]pyrrole]
26.2% | > 10 µM | 6.12% | 1.43 µM | Cc1cnn(C)c1-c1ccc(N2CCC3CN(CCCc4ccccc4)CC32)nn1 (stereo not shown) [Compound 7, 1-(6-(1,4-dimethyl-1H-pyrazol-5-yl)pyridazin-3-yl)-5-(3-phenylpropyl)octahydropyrrolo[3,4-b]pyrrole]
32.4% | > 10 µM | 6.61% | 3.38 µM | Cc1cnn(C)c1-c1ccc(N2CCC3CN(CC4CCN(Cc5ccccc5)CC4)CC32)nn1 (stereo not shown) [Compound 8, 5-((1-benzylpiperidin-4-yl)methyl)-1-(6-(1,4-dimethyl-1H-pyrazol-5-yl)pyridazin-3-yl)octahydropyrrolo[3,4-b]pyrrole]
6.32% | 2.33 µM | 4.33% | 0.498 µM | Cc1cnn(C)c1-c1ccc(N2CCC3CN(CCC(C)c4ccccc4)CC32)nn1 (stereo not shown) [Compound 9, 1-(6-(1,4-dimethyl-1H-pyrazol-5-yl)pyridazin-3-yl)-5-(3-phenylbutyl)octahydropyrrolo[3,4-b]pyrrole]
55.5% | > 10 µM | 15.1% | > 10 µM | Cc1cnn(C)c1-c1ccc(N2CCC3CN(CC(C)c4ccccc4)CC32)nn1 (stereo not shown) [Compound 11, 1-(6-(1,4-dimethyl-1H-pyrazol-5-yl)pyridazin-3-yl)-5-(2-phenylpropyl)octahydropyrrolo[3,4-b]pyrrole]
48.3% | > 10 µM | 8.96% | 9.19 µM | Cc1cnn(C)c1-c1ccc(N2CCC3CN(CC(c4ccccc4)c4ccccc4)CC32)nn1 (stereo not shown) [Compound 14, 1-(6-(1,4-dimethyl-1H-pyrazol-5-yl)pyridazin-3-yl)-5-(2,2-diphenylethyl)octahydropyrrolo[3,4-b]pyrrole]

The next lines start with the compound.

SMILES | remaining activity at 30 µM (Rat M4) | IC50 (Rat M4) | remaining activity at 30 µM (Human M4) | IC50 (Human M4)
Cc1cnn(C)c1-c1ccc(N2CCC3CN(CC45CC6CC(CC(C6)C4)C5)CC32)nn1 (stereo not shown) [Compound 1, 5-(Adamantan-1-ylmethyl)-1-(6-(1,4-dimethyl-1H-pyrazol-5-y)pyridazin-3-yl)octahydropyrrolo[3,4-b]pyrrole] | 4.61% | 0.509 µM | – | –
Cc1cnn(C)c1-c1ccc(N2CCC3CN(CCCC(C)(C)C)CC32)nn1 (stereo not shown) [Compound 2, 1-(6-(1,4-Dimethyl-1H-pyrazol-5-yl)pyridazin-3-yl)-5-(4,4-dimethylpentyl)octahydropyrrolo[3,4-b]pyrrole] | 6.85% | 1.5 µM | 3.83% | 0.647 µM
Cc1cnn(C)c1-c1ccc(N2CCC3CN(CC4CC5C=CC4C5)CC32)nn1 (stereo not shown) [Compound 3, 5-(bicyclo[2.2.1]hept-5-en-2-ylmethyl)-1-(6-(1,4-dimethyl-1H-pyrazol-5-yl)pyridazin-3-yl)octahydropyrrolo[3,4-b]pyrrole] | 16.8% | 3.57 µM | 4.28% | 0.8 µM
Cc1cccnc1CN1CC2CCN(c3ccc(-c4c(C)cnn4C)nn3)C2C1 (stereo not shown) [Compound 4, 1-(6-(1,4-dimethyl-1H-pyrazol-5-yl)pyridazin-3-yl)-5-((3-methylpyridin-2-yl)methyl)octahydropyrrolo[3,4-b]pyrrole] | 63.1% | > 10 µM | 26.2% | > 10 µM
Cc1cnn(C)c1-c1ccc(N2CCC3CN(CC4C5CC6CC(C5)CC4C6)CC32)nn1 (stereo not shown) [Compound 10, 5-(adamantan-2-ylmethyl)-1-(6-(1,4-dimethyl-1H-pyrazol-5-yl)pyridazin-3-yl)octahydropyrrolo[3,4-b]pyrrole] | 4.82% | 1.89 µM | 4.12% | 0.453 µM
CC/C=C\CCCN1CC2CCN(c3ccc(-c4c(C)cnn4C)nn3)C2C1 (stereo not shown) [Compound 12, (Z)-1-(6-(1,4-dimethyl-1H-pyrazol-5-yl)pyridazin-3-yl)-5-(hept-4-en-1-yl)octahydropyrrolo[3,4-b]pyrrole] | 45.2% | > 10 µM | 15.1% | > 10 µM
CCCCCCN1CC2CCN(c3ccc(-c4c(C)cnn4C)nn3)C2C1 (stereo not shown) [Compound 13, 1-(6-(1,4-dimethyl-1H-pyrazol-5-yl)pyridazin-3-yl)-5-hexyloctahydropyrrolo[3,4-b]pyrrole] | 28.4% | > 10 µM | 7.23% | 2.15 µM
CCc1ccncc1-c1ccc(N2CCC3CN(CC45CC6CC(CC(C6)C4)C5)CC32)nn1 (stereo not shown) [Compound 15, 5-(adamantan-1-ylmethyl)-1-(6-(4-ethylpyridin-3-yl)pyridazin-3-yl)octahydropyrrolo[3,4-b]pyrrole] | 3.98% | 1.71 µM | 4.18% | 0.899 µM
Cc1nn(C)cc1-c1ccc(N2CCC3CN(CC45CC6CC(CC(C6)C4)C5)CC32)nn1 (stereo not shown) [Compound 16, 5-(adamantan-1-ylmethyl)-1-(6-(1,3-dimethyl-1H-pyrazol-4-yl)pyridazin-3-yl)octahydropyrrolo[3,4-b]pyrrole] | 4.09% | 0.753 µM | 4.02% | 0.191 µM
Fc1ccc(Cl)c(-c2ccc(N3CCC4CN(CC56CC7CC(CC(C7)C5)C6)CC43)nn2)c1 (stereo not shown) [Compound 17, 5-(adamantan-1-ylmethyl)-1-(6-(2-chloro-5-fluorophenyl)pyridazin-3-yl)octahydropyrrolo[3,4-b]pyrrole] | 49.1% | > 10 µM | 20.2% | > 10 µM

Reference: patent US11225484B2, “Substituted octahydropyrrolo[3,4-b]pyrroles as antagonists of the muscarinic acetylcholine receptor M4” (Vanderbilt University, priority 2017, dated 2022)
